Results on five molecules are retold here after ChEMBL document CHEMBL3774316, “Design, synthesis and anti-HIV-1 evaluation of hydrazide-based peptidomimetics as selective gelatinase inhibitors” (Bioorg Med Chem, 2016).

Some results are limits rather than exact numbers.

For one data set, the target named is T1, Aminopeptidase N (Sus scrofa, UniProt P15145).
T1 sequence (P15145 whole entry): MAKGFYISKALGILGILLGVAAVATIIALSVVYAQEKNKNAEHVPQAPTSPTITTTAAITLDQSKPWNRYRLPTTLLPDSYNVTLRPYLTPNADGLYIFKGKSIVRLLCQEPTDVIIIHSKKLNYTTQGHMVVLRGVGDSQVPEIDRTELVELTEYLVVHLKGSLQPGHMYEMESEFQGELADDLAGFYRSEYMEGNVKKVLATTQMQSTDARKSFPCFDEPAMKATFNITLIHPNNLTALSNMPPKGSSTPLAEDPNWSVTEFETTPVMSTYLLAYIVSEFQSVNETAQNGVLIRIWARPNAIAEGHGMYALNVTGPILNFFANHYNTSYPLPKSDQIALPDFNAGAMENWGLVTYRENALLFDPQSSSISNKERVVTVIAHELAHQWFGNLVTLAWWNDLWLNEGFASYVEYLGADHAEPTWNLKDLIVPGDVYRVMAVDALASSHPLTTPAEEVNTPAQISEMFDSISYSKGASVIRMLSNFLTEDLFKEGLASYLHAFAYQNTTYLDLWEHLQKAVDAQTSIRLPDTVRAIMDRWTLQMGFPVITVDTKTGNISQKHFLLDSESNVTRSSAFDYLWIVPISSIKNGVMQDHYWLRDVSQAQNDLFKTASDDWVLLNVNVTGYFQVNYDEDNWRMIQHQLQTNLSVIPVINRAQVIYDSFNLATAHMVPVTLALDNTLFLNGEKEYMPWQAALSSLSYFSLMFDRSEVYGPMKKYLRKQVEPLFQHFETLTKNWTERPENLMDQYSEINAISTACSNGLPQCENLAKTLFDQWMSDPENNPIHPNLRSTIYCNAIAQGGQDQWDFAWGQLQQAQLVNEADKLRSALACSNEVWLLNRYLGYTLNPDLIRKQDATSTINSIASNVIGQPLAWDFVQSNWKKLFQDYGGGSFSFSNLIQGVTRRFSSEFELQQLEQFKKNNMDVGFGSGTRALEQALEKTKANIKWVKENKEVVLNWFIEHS
As to the kind of experiment: Inhibition of porcine microsomal aminopeptidase N preincubated for 30 mins using L-Leu-p-nitroanilide as substrate by UV-VIS spectrophotometer.

Data set [1] has as its system Human immunodeficiency virus 1. Briefly: Antiviral activity against HIV1 3B infected in human C8166 cells assessed as cytopathic effect by counting the number of syncytia by microscopy. The note with it: Human immunodeficiency virus 1, 3B. It counts as functional, organism-based.
In a further data set the test system is C8166. Briefly: Cytotoxicity against human C8166 cells after 72 hrs by MTT assay. The class given is functional. The note with it: C8166, 72 h.
The nature of data set [2]: Therapeutic index, ratio of CC50 for human C8166 cells to EC50 for HIV1 3B infected in human C8166 cells. It counts as cell-based. The note with it: read-out: Ratio CC50/EC50.
The target of data set [3] is 72 kDa type IV collagenase (Homo sapiens, UniProt P08253). As to the kind of experiment: Inhibition of gelatinase A (unknown origin) after 30 mins using succinylated gelatin as substrate.
Data set [4] has as its system Human immunodeficiency virus 1. Briefly: Antiviral activity against HIV1 3B infected in human C8166 cells assessed as reduction in p24 antigen level incubated for 2 hrs followed by cell plating for 72 hrs by ELISA method. The class given is functional, organism-based. The note with it: Human immunodeficiency virus 1, 3B.
The test system of data set [5] is Human immunodeficiency virus 1. Briefly: Antiviral activity against HIV1 74V infected in human C8166 cells assessed as reduction in p24 antigen level incubated for 4 hrs followed by cell plating for 72 hrs by ELISA method. The class given is functional, organism-based. The note with it: Human immunodeficiency virus 1, 74V.
Data set [6] relates to Human immunodeficiency virus 1. As to the kind of experiment: Antiviral activity against HIV1 A17 infected in human C8166 cells assessed as reduction in p24 antigen level incubated for 4 hrs followed by cell plating for 72 hrs by ELISA method. It counts as functional, organism-based. The note with it: Human immunodeficiency virus 1, A17, C8166.

Chain of 72 kDa type IV collagenase (P08253 whole entry): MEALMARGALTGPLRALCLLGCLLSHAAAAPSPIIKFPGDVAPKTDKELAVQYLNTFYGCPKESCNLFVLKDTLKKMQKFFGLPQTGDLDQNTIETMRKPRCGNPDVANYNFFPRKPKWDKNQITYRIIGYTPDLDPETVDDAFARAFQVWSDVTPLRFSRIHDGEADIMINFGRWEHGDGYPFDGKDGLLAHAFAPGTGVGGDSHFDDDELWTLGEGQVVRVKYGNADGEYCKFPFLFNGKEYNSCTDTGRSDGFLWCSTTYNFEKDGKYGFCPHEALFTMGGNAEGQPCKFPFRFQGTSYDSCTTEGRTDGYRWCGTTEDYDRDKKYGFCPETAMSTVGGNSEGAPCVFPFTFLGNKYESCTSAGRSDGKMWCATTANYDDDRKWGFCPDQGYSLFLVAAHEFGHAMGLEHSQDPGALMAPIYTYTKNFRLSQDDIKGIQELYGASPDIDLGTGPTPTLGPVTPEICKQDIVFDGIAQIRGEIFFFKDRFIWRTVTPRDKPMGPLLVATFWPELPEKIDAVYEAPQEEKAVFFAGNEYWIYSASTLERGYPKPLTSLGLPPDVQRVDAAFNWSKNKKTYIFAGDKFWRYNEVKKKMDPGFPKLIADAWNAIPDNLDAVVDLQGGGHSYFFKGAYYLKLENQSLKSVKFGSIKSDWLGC

Turning to `COc1cccc(/C=N/NC(=O)Cn2c(=O)c(C)nc3ccccc32)c1O`, the IC50 came to 80.9 µM against Aminopeptidase N and 7.17 µM in data set [3]. Also, the EC50 stood at 2.79 µM in data set [1], 6.05 µM in data set [4], 3.48 µM in data set [5] and 2.46 µM in data set [6]. The molecule also displayed a CC50 in the data set on C8166 of 115 µM. Also, the selectivity ratio in data set [2] worked out at 41.3.
Turning to `Cc1ccc(S(=O)(=O)N2CC3(C[C@H]2C(=O)N/N=C/c2ccccc2Br)SCCS3)cc1`, the IC50 against Aminopeptidase N is above 1000 µM; in data set [3] it was 0.41 µM. In addition, the EC50 in data set [1] amounted to 28 µM; in data set [4], 33.4 µM; in data set [5], 30.6 µM; in data set [6], 18.3 µM. In the data set with C8166, this molecule registered a CC50 of 177 µM. Moreover, the selectivity ratio in data set [2] amounted to 6.3.
Regarding `Cc1ccc(S(=O)(=O)N2CC3(C[C@H]2C(=O)N/N=C/c2cccc([N+](=O)[O-])c2)SCCS3)cc1`, the values for the IC50 (against Aminopeptidase N; in data set [3]) were above 1000 µM and 1.05 µM, respectively. For the same molecule, the EC50 in data set [1] turned out to be 16 µM; in data set [4] it was 3.89 µM; in data set [5], 5.07 µM; in data set [6], 9.94 µM. Also, the CC50 with C8166 is above 395 µM. Besides, the selectivity ratio in data set [2] was above 24.6.
In the case of `Cc1ccc(S(=O)(=O)N2CC3(C[C@H]2C(=O)N/N=C/c2ccccc2Cl)SCCS3)cc1`, the IC50 was above 1000 µM on Aminopeptidase N and 0.64 µM in data set [3]. The concentration for a half-maximal effect (EC50) in data set [1] amounted to 30.3 µM; in data set [4], 149 µM; in data set [5] it was 93.6 µM; in data set [6] it was 18.2 µM. This molecule showed a CC50 in the data set on C8166 above 404 µM. Besides, the selectivity ratio in data set [2] was above 13.3.
Consider `Cc1ccc(/C=N/NC(=O)[C@@H]2CC3(CN2S(=O)(=O)c2ccc(C)cc2)SCCS3)cc1`, for which the figures for the IC50 (on Aminopeptidase N; in data set [3]) were above 1000 µM and 36.8 µM, respectively. For the same molecule, the EC50 in data set [1] is 40.5 µM; in data set [4], 39.3 µM; in data set [5], above 200 µM; in data set [6], above 200 µM. The molecule further gave a CC50 in the data set on C8166 above 421 µM. The selectivity ratio in data set [2] was above 10.4.
